Experimental data as given in US4434101A, “Inhibitors of SRS-synthesis” (Hoffmann-La Roche Inc., priority 1981, dated 1984).

Test system: SRS-A synthesis in rat peritoneal cells
Test: Inhibition of the In Vitro Synthesis of SRS-A in Rat Peritoneal Cells
Format: cell-based, rat (male Sprague-Dawley)
Settings: for inhibition at 10 µM: mean percent inhibition of ionophore A23187-induced SRS-A synthesis, 10 min preincubation at 37° C., p<0.001, SRS-A quantitated by guinea pig ileum bioassay, read-out: % Inhibition at 10μ M; for IC50: from plot of mean percent inhibition versus drug concentration, ionophore A23187-induced SRS-A synthesis
Source text: Inhibition of the In Vitro Synthesis of SRS-A in Rat Peritoneal Cells
To study the effect of drugs on SRS-A synthesis in rat peritoneal cells, these cells (including mast cells, monocytes, eosinophils and neutrophils)were isolated from male Sprague-Dawley rats (Charles River Laboratories) weighing 180-220 g by the lavage procedure described by Herzig, D. G. and Dusner, E. J. Journal of Pharmacology and Experimental Therapeutics, 194, 457-460 (1975) with the exception that Hanks balanced salt solution used in these experiments was adjusted to pH 6.9 with 5% (V/V) of 0.1 M aqueous phosphate buffer and contained 50 mg/ml sodium heparin. After removal from the peritoneal cavity of rats, the cells were subsequently isolated by centrifugation at 400×gravity for 10 minutes at 4° C. and resuspended to a concentration of about 2,000,000 cells per ml in Hanks buffer.
Samples for evaluation were prepared by adding various concentrations of test drugs to 2 ml aliquots of the resuspended cells in Hanks buffer. The 2 ml samples used for control contained 2 ml aliquots of resuspended cells in Hanks buffer without drugs. All of the above samples (2 ml final volume) were preincubated at 37° C. for 10 minutes in the presence of varying concentrations of test drug prior to challenge with […] ionophore A23187. This ionophore is disclosed in Burka and Flower, Br. J. Pharmacology 65: 35-41 (1979). Antibiotic A23187 was used as a probe for the study of calcium and function in biological systems. After ionophore challenge, SRS-A was synthesized in the samples by the cells for 10 minutes (at 37° C.) after which this synthesis was terminated by placing the samples in a boiling water bath for 10 minutes followed by centrifugation at 2,000×g (10 minutes) at 4° C. to remove coagulated protein and cellular debris. The SRS-A present in the resulting supernatants was quantitated by a bioassay using a guinea pig ileum as described in Orange, and Austen, Adv. Immunol, 10: 105-144 (1969). For this bioassay, a 1.5 cm segment of ileum was removed from animals weighing 300 to 400 g and resuspended in an organ bath containing 10 ml of Tyrodes solution with 10^-6 M atropine sulfate and 10^-6 M pyrilamine maleate. The bath was maintained at 37° C. and aereated with a mixture of 95% O2 and 5% CO2. The concentration of SRS-A in the experimental samples was determined by a comparison of isotonic contraction responses elicited by the samples with those obtained with varying amounts of an SRS-A standard solution prepared from chopped guinea pig lung as disclosed in Hitchcock, M. J. Pharmacol. Exp. Ther. 207: 630-640 (1978) and quantitated by the procedures of Orange, R. R. and Austen, K. F. Adv. Immunol. 10: 105-144 (1969) against histamine (1 unit of SRS-A being that amount which gives a contractie response similar to that of […] of histamine). In the absence of drug, the ionophore A23187-induced SRS-A synthesis varied between 40 to 50 units of SRS-A per 10^6 cells. In the presence of increasing concentrations of test drug, there was a concentration-related decrease in SRS-A synthesis.
The mean percent inhibition [formula] at each concentration of the various test drugs was calculated. The concentration of test drug which inhibits the synthesis of SRS-A by 50% (IC50) was determined for each test drug from a plot of the mean percent inhibition versus drug concentration. The difference of units of SRS-A in the test sample used in the fraction given above was obtained by subtracting the units of SRS-A in the control from the actual measurement of the units of SRS-A in the sample.

IC50 | SMILES | inhibition at 10 µM
1 to 3 µM | CCCCC/C=C\C/C=C\C/C=C\C(C)(C)/C=C\CCCC(=O)O [(all-Z)-7,7-dimethyleicosa-5,8,11,14-tetraenoic acid] | 100%
< 10 µM | CCCCCCCCCCC/C=C\C(C)(C)/C=C\CCCC(=O)O [(Z,Z)-7,7-dimethyl-5,8-eicosadienoic acid] | 100%
< 10 µM | CCCCCCCC/C=C\C/C=C\C(C)(C)/C=C\CCCC(=O)O [(all Z)-7,7-dimethyl-5,8,11-eicosatrienoic acid] | 100%
